# Read-outs that look alike come from different tables or passages of the source.
# How the values were obtained:
# BT-549 = assay: panel of 60 human tumor cell lines, growth inhibition (Breast Cancer); details: Homo sapiens; for GI50: BT-549; for CC50: BT-549, read-out: LC50; for IC (TGI): BT-549, read-out: TGI
# UACC-62 = assay: panel of 60 human tumor cell lines, growth inhibition (Melanoma); details: Homo sapiens; for GI50: UACC-62; for CC50: UACC-62, read-out: LC50; for IC (TGI): UACC-62, read-out: TGI
# SK-MEL-2 = assay: as above; details: Homo sapiens; for GI50: SK-MEL-2; for CC50: SK-MEL-2, read-out: LC50; for IC (TGI): SK-MEL-2, read-out: TGI
# DU-145 = assay: panel of 60 human tumor cell lines, growth inhibition (Prostate Cancer); details: Homo sapiens; for GI50: DU-145; for CC50: DU-145, read-out: LC50; for IC (TGI): DU-145, read-out: TGI
# M14 = assay: panel of 60 human tumor cell lines, growth inhibition (Melanoma); details: Homo sapiens; for GI50: M14; for CC50: M14, read-out: LC50; for IC (TGI): M14, read-out: TGI
# SNB-75 = assay: panel of 60 human tumor cell lines, growth inhibition (CNS Cancer); details: Homo sapiens; for GI50: SNB-75; for CC50: SNB-75, read-out: LC50; for IC (TGI): SNB-75, read-out: TGI
# MCF7 = assay: panel of 60 human tumor cell lines, growth inhibition (Breast Cancer); details: Homo sapiens; for CC50: MCF7, read-out: LC50; for IC (TGI): MCF7, read-out: TGI
# OVCAR-3 = assay: panel of 60 human tumor cell lines, growth inhibition (Ovarian Cancer); details: for GI50 / CC50 / IC (TGI): Homo sapiens; for GI50 / Percent Growth: OVCAR-3; for CC50: OVCAR-3, read-out: LC50; for IC (TGI): OVCAR-3, read-out: TGI
# 786-0 = assay: panel of 60 human tumor cell lines, growth inhibition (Renal Cancer); details: Homo sapiens; for GI50: 786-0; for CC50: 786-0, read-out: LC50; for IC (TGI): 786-0, read-out: TGI
# HCT-15 = assay: panel of 60 human tumor cell lines, growth inhibition (Colon Cancer); details: Homo sapiens; for GI50: HCT-15; for CC50: HCT-15, read-out: LC50; for IC (TGI): HCT-15, read-out: TGI
# HCT-116 = assay: as above; details: Homo sapiens; for CC50: HCT-116, read-out: LC50; for IC (TGI): HCT-116, read-out: TGI
# NCI-H322M = assay: panel of 60 human tumor cell lines, growth inhibition (Non-Small Cell Lung Cancer); details: Homo sapiens; for CC50: read-out: LC50; for IC (TGI): read-out: TGI
# K-562 = assay: panel of 60 human tumor cell lines, growth inhibition (Leukemia); details: for GI50 / CC50: Homo sapiens; for GI50: K562; for CC50: K562, read-out: LC50
# SK-OV-3 = assay: panel of 60 human tumor cell lines, growth inhibition (Ovarian Cancer); details: Homo sapiens; for GI50: SK-OV-3; for CC50: SK-OV-3, read-out: LC50; for IC (TGI): SK-OV-3, read-out: TGI
# UO-31 = assay: panel of 60 human tumor cell lines, growth inhibition (Renal Cancer); details: Homo sapiens; for GI50: UO-31; for CC50: UO-31, read-out: LC50; for IC (TGI): UO-31, read-out: TGI
# NCI-H226 = assay: panel of 60 human tumor cell lines, growth inhibition (Non-Small Cell Lung Cancer); details: Homo sapiens; for GI50: NCI-H226; for CC50: NCI-H226, read-out: LC50; for IC (TGI): NCI-H226, read-out: TGI
# RXF 393 = assay: panel of 60 human tumor cell lines, growth inhibition (Renal Cancer); details: Homo sapiens; for CC50: RXF 393, read-out: LC50; for IC (TGI): RXF 393, read-out: TGI
# [1] = K-562, Log10 Concentration −4.0
# [2] = K-562, Log10 Concentration −5.0
# [3] = K-562, Log10 Concentration −6.0
# [4] = K-562, Log10 Concentration −7.0
# [5] = K-562, Log10 Concentration −8.0
structure (smiles),measurement,setting,value
"C=C1C(=O)O[C@H]2[C@H]1CC/C(COC(=O)NCCN1CCCC1)=C\CC[C@@]1(C)O[C@@H]21 [JVM 59, ((1aR,7aS,10aS,10bS,E)-1a-methyl-8-methylene-9-oxo-1a,2,3,6,7,7a,8,9,10a,10b-decahydrooxireno[2′,3′:9,10]cyclodeca[1,2-b]furan-5-yl)methyl-(2-(pyrrolidin-1-yl)ethyl)carbamate]",GI50,BT-549,4.75 µM
same,CC50,BT-549,45 µM
same,IC (TGI),BT-549,18.6 µM
same,GI50,UACC-62,13.3 µM
same,CC50,UACC-62,55.8 µM
same,IC (TGI),UACC-62,27.3 µM
same,GI50,SK-MEL-2,14 µM
same,CC50,SK-MEL-2,62.4 µM
same,IC (TGI),SK-MEL-2,29.5 µM
same,GI50,DU-145,7.42 µM
same,CC50,DU-145,46.3 µM
same,IC (TGI),DU-145,20.2 µM
same,GI50,M14,9.65 µM
same,CC50,M14,58.1 µM
same,IC (TGI),M14,24 µM
same,GI50,SNB-75,18 µM
same,CC50,SNB-75,> 100 µM
same,IC (TGI),SNB-75,79.3 µM
same,GI50,"MCF7; MCF7, MCF7, five dose",3.91 µM
same,GI50,"MCF7; MCF7, MCF7, 5-dose assay",3.91 µM
same,CC50,MCF7,63.7 µM
same,IC (TGI),MCF7,17.1 µM
same,GI50,OVCAR-3,8.41 µM
same,CC50,OVCAR-3,46.4 µM
same,IC (TGI),OVCAR-3,20.8 µM
same,Percent Growth,OVCAR-3; Log10 Concentration −4.0,−98%
same,Percent Growth,OVCAR-3; Log10 Concentration −5.0,46%
same,Percent Growth,OVCAR-3; Log10 Concentration −6.0,102%
same,Percent Growth,OVCAR-3; Log10 Concentration −7.0,100%
same,Percent Growth,OVCAR-3; Log10 Concentration −8.0,101%
same,GI50,786-0,14.4 µM
same,CC50,786-0,60 µM
same,IC (TGI),786-0,29.4 µM
same,GI50,HCT-15,13.5 µM
same,CC50,HCT-15,91.2 µM
same,IC (TGI),HCT-15,35.1 µM
same,GI50,"HCT-116; HCT-116, HCT-116, five dose",3.18 µM
same,GI50,"HCT-116; HCT-116, HCT-116, 5-dose assay",3.18 µM
same,CC50,HCT-116,38.2 µM
same,IC (TGI),HCT-116,12.7 µM
same,GI50,NCI-H322M,73.9 µM
same,CC50,NCI-H322M,> 100 µM
same,IC (TGI),NCI-H322M,> 100 µM
same,GI50,K-562,3.26 µM
same,CC50,K-562,> 100 µM
same,TGI,"K-562; K-562, five dose",1.86E−5
same,Percent Growth,K-562; [1],−36%
same,Percent Growth,K-562; [2],13%
same,Percent Growth,K-562; [3],89%
same,Percent Growth,K-562; [4],79%
same,Percent Growth,K-562; [5],87%
same,GI50,SK-OV-3,29.4 µM
same,CC50,SK-OV-3,> 100 µM
same,IC (TGI),SK-OV-3,> 100 µM
same,GI50,UO-31,13.4 µM
same,CC50,UO-31,75.3 µM
same,IC (TGI),UO-31,31.8 µM
same,GI50,NCI-H226,35.3 µM
same,CC50,NCI-H226,> 100 µM
same,IC (TGI),NCI-H226,> 100 µM
same,Percent Growth,HL-60(TB); Log10 Concentration −4.0,−63%
same,Percent Growth,HL-60(TB); Log10 Concentration −5.0,22%
same,Percent Growth,HL-60(TB); Log10 Concentration −6.0,95%
same,Percent Growth,HL-60(TB); Log10 Concentration −7.0,96%
same,Percent Growth,HL-60(TB); Log10 Concentration −8.0,88%
same,GI50,"RXF 393; RXF 393, RXF 393, five dose",4.08 µM
same,GI50,"RXF 393; RXF 393, RXF 393, 5-dose assay",4.08 µM
same,CC50,RXF 393,47.9 µM
same,IC (TGI),RXF 393,16.8 µM
"C=C1C(=O)O[C@H]2[C@H]1CC/C(COC(=O)NCCN1CCOCC1)=C\CC[C@@]1(C)O[C@@H]21 [JVM 57, ((1aR,7aS,10aS,10bS,E)-1a-methyl-8-methylene-9-oxo-1a,2,3,6,7,7a,8,9,10a,10b-decahydrooxireno[2′,3′:9,10]-cyclodeca[1,2-b]furan-5-yl)-methyl(2-morpholinoethyl)carbamate]",GI50,BT-549,4.99 µM
same,CC50,BT-549,49.3 µM
same,IC (TGI),BT-549,17.6 µM
same,GI50,UACC-62,11.8 µM
same,CC50,UACC-62,53.2 µM
same,IC (TGI),UACC-62,25.1 µM
same,GI50,SK-MEL-2,13.2 µM
same,CC50,SK-MEL-2,65.5 µM
same,IC (TGI),SK-MEL-2,29.4 µM
same,GI50,DU-145,3.74 µM
same,CC50,DU-145,37 µM
same,IC (TGI),DU-145,13.3 µM
same,GI50,M14,7.97 µM
same,CC50,M14,58.5 µM
same,IC (TGI),M14,23.1 µM
same,GI50,SNB-75,19.5 µM
same,CC50,SNB-75,> 100 µM
same,IC (TGI),SNB-75,> 100 µM
same,GI50,"MCF7; MCF7, MCF7",3.54 µM
same,GI50,"MCF7; MCF7, MCF7, 5-dose assay",3.54 µM
same,CC50,MCF7,53.1 µM
same,IC (TGI),MCF7,14.4 µM
same,GI50,OVCAR-3,6.2 µM
same,CC50,OVCAR-3,44.1 µM
same,IC (TGI),OVCAR-3,18.7 µM
same,Percent Growth,OVCAR-3; Log10 Concentration −4.0,−98%
same,Percent Growth,OVCAR-3; Log10 Concentration −5.0,37%
same,Percent Growth,OVCAR-3; Log10 Concentration −6.0,101%
same,Percent Growth,OVCAR-3; Log10 Concentration −7.0,109%
same,Percent Growth,OVCAR-3; Log10 Concentration −8.0,109%
same,GI50,786-0,11.4 µM
same,CC50,786-0,59.4 µM
same,IC (TGI),786-0,26 µM
same,GI50,HCT-15,10.5 µM
same,CC50,HCT-15,> 100 µM
same,IC (TGI),HCT-15,34.4 µM
same,GI50,"HCT-116; HCT-116, HCT-116",2.87 µM
same,GI50,"HCT-116; HCT-116, HCT-116, 5-dose assay",2.87 µM
same,CC50,HCT-116,38.9 µM
same,IC (TGI),HCT-116,10.7 µM
same,GI50,NCI-H322M,37.9 µM
same,CC50,NCI-H322M,> 100 µM
same,IC (TGI),NCI-H322M,> 100 µM
same,GI50,K-562,3.37 µM
same,CC50,K-562,> 100 µM
same,TGI,K-562; K-562,2.88E−5
same,Percent Growth,K-562; [1],−16%
same,Percent Growth,K-562; [2],14%
same,Percent Growth,K-562; [3],90%
same,Percent Growth,K-562; [4],99%
same,Percent Growth,K-562; [5],100%
same,GI50,SK-OV-3,48.5 µM
same,CC50,SK-OV-3,> 100 µM
same,IC (TGI),SK-OV-3,> 100 µM
same,GI50,UO-31,10.7 µM
same,CC50,UO-31,54.5 µM
same,IC (TGI),UO-31,24.1 µM
same,GI50,NCI-H226,42.7 µM
same,CC50,NCI-H226,> 100 µM
same,IC (TGI),NCI-H226,> 100 µM
same,Percent Growth,HL-60(TB); Log10 Concentration −4.0,−55%
same,Percent Growth,HL-60(TB); Log10 Concentration −5.0,14%
same,Percent Growth,HL-60(TB); Log10 Concentration −6.0,95%
same,Percent Growth,HL-60(TB); Log10 Concentration −7.0,101%
same,Percent Growth,HL-60(TB); Log10 Concentration −8.0,100%
same,GI50,"RXF 393; RXF 393, RXF 393",3 µM
same,GI50,"RXF 393; RXF 393, RXF 393, 5-dose assay",3 µM
same,CC50,RXF 393,41 µM
same,IC (TGI),RXF 393,11.9 µM

# Reference: patent publication US9469650B2, “Melampomagnolide B derivatives” (BOARD OF TRUSTEES OF THE UNIVERSITY OF ARKANSAS, priority 2013, dated 2016)
